Measured values as given in patent US8519096B2, “Citrullinated peptides for diagnosing and prognosing rheumatoid arthritis” (Nestec S.A., priority 2009, dated 2013).
Non-standard residues stand in square brackets, D forms with d. *: point of attachment. Biotin = O=C1N[C@H]2[C@H](CS[C@H]2CCCCC(=O)*)N1; Cit = NC(=O)NCCC[C@H](N)C(=O)O

system: IgG ACPAs; test: ACPA ELISA with anti-human IgG secondary antibody; assay type: binding; conditions: Example 7, FIGS. 20-27
Procedure: The synthetic citrullnated peptides set forth in Example 6, which were designed from synovial proteins, were synthesized and evaluated for their ability to diagnose and/or prognose RA. […] The peptides were then tested for IgG ACPA dose-response in samples of synovial fluid taken from both healthy patients and patients with RA.

Row | Substance | IgG ACPA positive response (strong/moderate)
1 | T10α1-1: synthetic citrullinated peptide derived from collagen (Coll.T10α1), Table 8 (Biotin-KAGQ[Cit]PSLSGDKILYN[Cit]QQ[Cit]TGIFTSQIR-NH2; SMILES CC[C@H](C)[C@H](NC(=O)CNC(=O)[C@@H](NC(=O)[C@H](CCCNC(N)=O)NC(=O)[C@H](CCC(N)=O)NC(=O)[C@H](CCC(N)=O)NC(=O)[C@H](CCCNC(N)=O)NC(=O)[C@H](CC(N)=O)NC(=O)[C@H](Cc1ccc(O)cc1)NC(=O)[C@H](CC(C)C)NC(=O)[C@@H](NC(=O)[C@H](CCCCN)NC(=O)[C@H](CC(=O)O)NC(=O)CNC(=O)[C@H](CO)NC(=O)[C@H](CC(C)C)NC(=O)[C@H](CO)NC(=O)[C@@H]1CCCN1C(=O)[C@H](CCCNC(N)=O)NC(=O)[C@H](CCC(N)=O)NC(=O)CNC(=O)[C@H](C)NC(=O)[C@H](CCCCN)NC(=O)CCCC[C@@H]1SC[C@@H]2NC(=O)N[C@@H]21)[C@@H](C)CC)[C@@H](C)O)C(=O)N[C@@H](Cc1ccccc1)C(=O)N[C@H](C(=O)N[C@@H](CO)C(=O)N[C@@H](CCC(N)=O)C(=O)N[C@H](C(=O)N[C@@H](CCCNC(=N)N)C(N)=O)[C@@H](C)CC)[C@@H](C)O) | moderate
2 | T9α1-1: synthetic citrullinated peptide derived from collagen (Coll.T9α1), Table 8 (Biotin-KRRP[Cit]FPVNSFQVDKAAS[Cit]AIQRVVGSRAIQ[Cit]VVGSA-NH2; SMILES CC[C@H](C)[C@H](NC(=O)[C@H](C)NC(=O)[C@H](CCCNC(=N)N)NC(=O)[C@H](CO)NC(=O)CNC(=O)[C@@H](NC(=O)[C@@H](NC(=O)[C@H](CCCNC(=N)N)NC(=O)[C@H](CCC(N)=O)NC(=O)[C@@H](NC(=O)[C@H](C)NC(=O)[C@H](CCCNC(N)=O)NC(=O)[C@H](CO)NC(=O)[C@H](C)NC(=O)[C@H](C)NC(=O)[C@H](CCCCN)NC(=O)[C@H](CC(=O)O)NC(=O)[C@@H](NC(=O)[C@H](CCC(N)=O)NC(=O)[C@H](Cc1ccccc1)NC(=O)[C@H](CO)NC(=O)[C@H](CC(N)=O)NC(=O)[C@@H](NC(=O)[C@@H]1CCCN1C(=O)[C@H](Cc1ccccc1)NC(=O)[C@H](CCCNC(N)=O)NC(=O)[C@@H]1CCCN1C(=O)[C@H](CCCNC(=N)N)NC(=O)[C@H](CCCNC(=N)N)NC(=O)[C@H](CCCCN)NC(=O)CCCC[C@@H]1SC[C@@H]2NC(=O)N[C@@H]21)C(C)C)C(C)C)[C@@H](C)CC)C(C)C)C(C)C)C(=O)N[C@@H](CCC(N)=O)C(=O)N[C@@H](CCCNC(N)=O)C(=O)N[C@H](C(=O)N[C@H](C(=O)NCC(=O)N[C@@H](CO)C(=O)N[C@@H](C)C(N)=O)C(C)C)C(C)C) | moderate
3 | T9α1-4: synthetic citrullinated peptide derived from collagen (Coll.T9α1), Table 8 (Biotin-QHIKQVSM[Cit]VIQEHFAEMAASLK[Cit]G-NH2; SMILES CC[C@H](C)[C@H](NC(=O)[C@H](Cc1c[nH]cn1)NC(=O)[C@H](CCC(N)=O)NC(=O)CCCC[C@@H]1SC[C@@H]2NC(=O)N[C@@H]21)C(=O)N[C@@H](CCCCN)C(=O)N[C@@H](CCC(N)=O)C(=O)N[C@H](C(=O)N[C@@H](CO)C(=O)N[C@@H](CCSC)C(=O)N[C@@H](CCCNC(N)=O)C(=O)N[C@H](C(=O)N[C@H](C(=O)N[C@@H](CCC(N)=O)C(=O)N[C@@H](CCC(=O)O)C(=O)N[C@@H](Cc1c[nH]cn1)C(=O)N[C@@H](Cc1ccccc1)C(=O)N[C@@H](C)C(=O)N[C@@H](CCC(=O)O)C(=O)N[C@@H](CCSC)C(=O)N[C@@H](C)C(=O)N[C@@H](C)C(=O)N[C@@H](CO)C(=O)N[C@@H](CC(C)C)C(=O)N[C@@H](CCCCN)C(=O)N[C@@H](CCCNC(N)=O)C(=O)NCC(N)=O)[C@@H](C)CC)C(C)C)C(C)C) | strong
4 | FBNT-6: synthetic citrullinated peptide derived from fibronectin, Table 8 (Biotin-RIAP[Cit]ATITGPRATITGY[Cit]YRI[Cit]HHPEHG-NH2; SMILES CC[C@H](C)[C@H](NC(=O)[C@H](CCCNC(=N)N)NC(=O)CCCC[C@@H]1SC[C@@H]2NC(=O)N[C@@H]21)C(=O)N[C@@H](C)C(=O)N1CCC[C@H]1C(=O)N[C@@H](CCCNC(N)=O)C(=O)N[C@@H](C)C(=O)N[C@H](C(=O)N[C@H](C(=O)N[C@H](C(=O)NCC(=O)N1CCC[C@H]1C(=O)N[C@@H](CCCNC(=N)N)C(=O)N[C@@H](C)C(=O)N[C@H](C(=O)N[C@H](C(=O)N[C@H](C(=O)NCC(=O)N[C@@H](Cc1ccc(O)cc1)C(=O)N[C@@H](CCCNC(N)=O)C(=O)N[C@@H](Cc1ccc(O)cc1)C(=O)N[C@@H](CCCNC(=N)N)C(=O)N[C@H](C(=O)N[C@@H](CCCNC(N)=O)C(=O)N[C@@H](Cc1c[nH]cn1)C(=O)N[C@@H](Cc1c[nH]cn1)C(=O)N1CCC[C@H]1C(=O)N[C@@H](CCC(=O)O)C(=O)N[C@@H](Cc1c[nH]cn1)C(=O)NCC(N)=O)[C@@H](C)CC)[C@@H](C)O)[C@@H](C)CC)[C@@H](C)O)[C@@H](C)O)[C@@H](C)CC)[C@@H](C)O) | strong
5 | T11α2-1: synthetic citrullinated peptide derived from collagen (Coll.T11α2), Table 8 (Biotin-GISPADVAY[Cit]VARPAQLYRVA[Cit]PAQLSAPT[Cit]QR-NH2; SMILES CC[C@H](C)[C@H](NC(=O)CNC(=O)CCCC[C@@H]1SC[C@@H]2NC(=O)N[C@@H]21)C(=O)N[C@@H](CO)C(=O)N1CCC[C@H]1C(=O)N[C@@H](C)C(=O)N[C@@H](CC(=O)O)C(=O)N[C@H](C(=O)N[C@@H](C)C(=O)N[C@@H](Cc1ccc(O)cc1)C(=O)N[C@@H](CCCNC(N)=O)C(=O)N[C@H](C(=O)N[C@@H](C)C(=O)N[C@@H](CCCNC(=N)N)C(=O)N1CCC[C@H]1C(=O)N[C@@H](C)C(=O)N[C@@H](CCC(N)=O)C(=O)N[C@@H](CC(C)C)C(=O)N[C@@H](Cc1ccc(O)cc1)C(=O)N[C@@H](CCCNC(=N)N)C(=O)N[C@H](C(=O)N[C@@H](C)C(=O)N[C@@H](CCCNC(N)=O)C(=O)N1CCC[C@H]1C(=O)N[C@@H](C)C(=O)N[C@@H](CCC(N)=O)C(=O)N[C@@H](CC(C)C)C(=O)N[C@@H](CO)C(=O)N[C@@H](C)C(=O)N1CCC[C@H]1C(=O)N[C@H](C(=O)N[C@@H](CCCNC(N)=O)C(=O)N[C@@H](CCC(N)=O)C(=O)N[C@@H](CCCNC(=N)N)C(N)=O)[C@@H](C)O)C(C)C)C(C)C)C(C)C) | strong
6 | FBNT-10: synthetic citrullinated peptide derived from fibronectin, Table 8 (Biotin-GGFR[Cit]TTPPTTF[Cit]RTTPPTTAR-NH2; SMILES C[C@H](NC(=O)[C@@H](NC(=O)[C@@H](NC(=O)[C@@H]1CCCN1C(=O)[C@@H]1CCCN1C(=O)[C@@H](NC(=O)[C@@H](NC(=O)[C@H](CCCNC(=N)N)NC(=O)[C@H](CCCNC(N)=O)NC(=O)[C@H](Cc1ccccc1)NC(=O)[C@@H](NC(=O)[C@@H](NC(=O)[C@@H]1CCCN1C(=O)[C@@H]1CCCN1C(=O)[C@@H](NC(=O)[C@@H](NC(=O)[C@H](CCCNC(N)=O)NC(=O)[C@H](CCCNC(=N)N)NC(=O)[C@H](Cc1ccccc1)NC(=O)CNC(=O)CNC(=O)CCCC[C@@H]1SC[C@@H]2NC(=O)N[C@@H]21)[C@@H](C)O)[C@@H](C)O)[C@@H](C)O)[C@@H](C)O)[C@@H](C)O)[C@@H](C)O)[C@@H](C)O)[C@@H](C)O)C(=O)N[C@@H](CCCNC(=N)N)C(N)=O) | moderate
7 | Apo a-4: synthetic citrullinated peptide derived from Apolipoprotein a, Table 8 (Biotin-HWHQ[Cit]TTEYYPNGGLT[Cit]GGLTRNYS[Cit]N-NH2; SMILES CC(C)C[C@H](NC(=O)CNC(=O)CNC(=O)[C@H](CC(N)=O)NC(=O)[C@@H]1CCCN1C(=O)[C@H](Cc1ccc(O)cc1)NC(=O)[C@H](Cc1ccc(O)cc1)NC(=O)[C@H](CCC(=O)O)NC(=O)[C@@H](NC(=O)[C@@H](NC(=O)[C@H](CCCNC(N)=O)NC(=O)[C@H](CCC(N)=O)NC(=O)[C@H](Cc1c[nH]cn1)NC(=O)[C@H](Cc1c[nH]c2ccccc12)NC(=O)[C@H](Cc1c[nH]cn1)NC(=O)CCCC[C@@H]1SC[C@@H]2NC(=O)N[C@@H]21)[C@@H](C)O)[C@@H](C)O)C(=O)N[C@H](C(=O)N[C@@H](CCCNC(N)=O)C(=O)NCC(=O)NCC(=O)N[C@@H](CC(C)C)C(=O)N[C@H](C(=O)N[C@@H](CCCNC(=N)N)C(=O)N[C@@H](CC(N)=O)C(=O)N[C@@H](Cc1ccc(O)cc1)C(=O)N[C@@H](CO)C(=O)N[C@@H](CCCNC(N)=O)C(=O)N[C@@H](CC(N)=O)C(N)=O)[C@@H](C)O)[C@@H](C)O) | strong
8 | PL-SCRB: synthetic citrullinated peptide derived from PL scramblase, Table 8 (Biotin-TL[Cit]IIDNMGQEVITLE[Cit]PLRSITLERPL[Cit]SS-NH2; SMILES CC[C@H](C)[C@H](NC(=O)[C@H](CO)NC(=O)[C@H](CCCNC(=N)N)NC(=O)[C@H](CC(C)C)NC(=O)[C@@H]1CCCN1C(=O)[C@H](CCCNC(N)=O)NC(=O)[C@H](CCC(=O)O)NC(=O)[C@H](CC(C)C)NC(=O)[C@@H](NC(=O)[C@@H](NC(=O)[C@@H](NC(=O)[C@H](CCC(=O)O)NC(=O)[C@H](CCC(N)=O)NC(=O)CNC(=O)[C@H](CCSC)NC(=O)[C@H](CC(N)=O)NC(=O)[C@H](CC(=O)O)NC(=O)[C@@H](NC(=O)[C@@H](NC(=O)[C@H](CCCNC(N)=O)NC(=O)[C@H](CC(C)C)NC(=O)[C@@H](NC(=O)CCCC[C@@H]1SC[C@@H]2NC(=O)N[C@@H]21)[C@@H](C)O)[C@@H](C)CC)[C@@H](C)CC)C(C)C)[C@@H](C)CC)[C@@H](C)O)C(=O)N[C@H](C(=O)N[C@@H](CC(C)C)C(=O)N[C@@H](CCC(=O)O)C(=O)N[C@@H](CCCNC(=N)N)C(=O)N1CCC[C@H]1C(=O)N[C@@H](CC(C)C)C(=O)N[C@@H](CCCNC(N)=O)C(=O)N[C@@H](CO)C(=O)N[C@@H](CO)C(N)=O)[C@@H](C)O) | moderate
